In patent US20080227813A1, “Pharmaceutical compositions and methods for treating diseases associated with neurodegeneration” (priority 2006, published 2008):
Like-named read-outs stand apart in the source and are kept apart here.

Experiments:
[1] = dog, in vivo, po
Description: Four animals of both sexes/groups were used, except the control and high dose group where the groups were completed with 2 recovery animals in both sexes.
The check of mortality and the clinical observations were performed twice daily, the weighing of non-consumed food was done daily. The body weight of the animals was measured once a week. The urine, hematological, clinical chemical and ECG investigations were performed before the first treatment day and at termination of the treatment and at the end of the recovery period. The blood samples for kinetic analysis were taken in the 2nd and in the 104th, 110th and 111th treatment days. The opthalmoscopic examinations were performed prior to the treatment, at termination of the treatment and at the end of the recovery period. Terminally gross necropsy and histopathological examinations were performed in all animals.

[2] = test system: Beagle dogs; assay: 14-day repeated dose oral toxicity study in Beagle dogs; format: in vivo; conditions: dog, 210 mg/kg/day oral, 14 days
Description: The control animals were treated in the same way with placebo gelatin capsules.
The checks of mortality were done twice daily. The clinical observations were performed at least twice daily and the weighing of non-consumed food was done daily. The body weights of the animals were measured once a week. The hematological, clinical chemical and ECG investigations, urinalysis and the opthalmological examinations were performed prior to the treatment and at the end of the treatment period. Terminally gross necropsy and histopathological examinations were performed according to the study plan.

[3] = test system: CRL:(WI)BR rats; assay: Acute intravenous toxicity in rats; format: in vivo; conditions: rat
Description: A control and five dose groups were involved in the rat study at dose levels of 150 mg/kg, 200 mg/kg, 250 mg/kg, 300 mg/kg and 350 mg/kg (equal to 93 mg/kg, 124 mg/kg, 155 mg/kg, 186 mg/kg and 217 mg/kg free base, n=5 animals/sex/group).

[4] = test system: Beagle dogs; assay: 110-day repeated dose oral toxicity study in dogs; format: in vivo, dog
Description: Evaluation […] involving control and three dose groups of 50, 80 and 160 mg/kg/day (equal to 31.0 mg/kg, 49.6 mg/kg and 99.2 mg/kg free base).

[5] = test system: CRL:NMRI BR mice; assay: Acute intraperitoneal toxicity in mice; format: in vivo; conditions: mouse
Description: Acute intraperitoneal toxicity studies were performed in rats (CRL(WI:)BR) and in mice (CRL: NMRI BR).
In the case of the mouse study a control and five dose groups were involved at dose levels of 850 mg/kg, 1100 mg/kg, 1500 mg/kg, 1900 mg/kg and 2600 mg/kg (equal to 527 mg/kg, 682 mg/kg, 930 mg/kg, 1178 mg/kg and 1613 mg/kg free base, n=5 animals/sex/group).

[6] = test system: CRL(:WI)BR rats; assay: 28-day repeated dose oral toxicity study in rats; format: in vivo, rat; conditions: for No observed adverse effect level (NOAEL): rat male and female, 28-day oral
Description: To assess recovery post treatment, an additional 5 males and females were included in both the control and highest dosage groups. Treatment was carried out by gavage once daily. Control animals were treated with physiologic saline in the same way.
Pre-treatment: general condition and behavior activity patterns were observed. Also in a subgroup of 5 male and 5 female animals, hematological and clinical chemistry tests were performed.
During the treatment period and following a two-week recovery period the clinical observations were made daily. At weekly intervals body weight and food consumption were measured.
At the end of the treatment, hematological, clinical chemistry evaluation and gross necropsy with organ weight assessment were conducted. […] In addition, the liver and kidneys and the organs showing macroscopic changes were examined microscopically in the low and middle dose groups, too.

[7] = test system: healthy young male subjects; conditions: human, single oral doses 50-800 mg
Description: The study was conducted in 12 volunteers, in accordance with the Helsinski Declaration, European Good Clinical Practices and Huriet law. The volunteers were divided into two groups (n=6 in each group).
The dose was administered orally, under medical supervision, after a 10 h abstinence from food. No concomitant medication was allowed within the period of time from the screening examination to 24 h after the last administration.

[8] = Double-blind multiple oral dose pharmacokinetics in male healthy volunteers
Description: The study was designed to compare the pharmacokinetic profile of Compound I from the following dose regimens: • A: Administration of 1 capsule containing 50 mg of Compound I or of 1 capsule of placebo, three times a day, total dose 150 mg. • B: Administration of 1 capsule containing 100 mg of Compound I or of 1 capsule of placebo, three times a day, total dose 300 mg.
The treatments were applied in parallel groups. […] The study was conducted according to the study protocol and in accordance with GCP.

[9] = test system: Salmonella typhimurium strains TA98, TA100, TA1537, TA1535 and Escherichia coli WP2 uvrA; assay: Genotoxicity in bacterial assays; format: cell-based; conditions: up to 5000 μg test item/plate, with and without rat liver fraction
[10] = dog, 50, 80, 160 mg/kg/day oral

## [O-][n+]1cccc(/C(Cl)=N/OC[C@H](O)CN2CCCCC2)c1 [Compound I, N-[2-hydroxy-3-(1-piperidinyl)-propoxy]-pyridine-1-oxide-3-carboximidoyl chloride]
[1]; 50 mg/kg/day
  AUCtot: 40220 ng·h/mL
  Cmax: 10840 ng/mL
  MRT: 3.78 h
  Tmax: 1.78 h
  clearance: 13 mL/min/kg
  t½: 1.89 h
[1]; 80 mg/kg/day
  AUCtot: 87010 ng·h/mL
  Cmax: 22000 ng/mL
  MRT: 4.04 h
  Tmax: 1.88 h
  clearance: 9.5 mL/min/kg
  t½: 2.10 h
[1]; 160 mg/kg/day
  AUCtot: 166390 ng·h/mL
  Cmax: 37950 ng/mL
  MRT: 4.57 h
  Tmax: 1.94 h
  clearance: 10.3 mL/min/kg
  t½: 2.44 h
[2]
  ECG or ophthalmological alterations: no direct treatment related ECG or opthalmological alterations
  clinical signs: decreased activity, tremor, ptosis, salivation, increased muscle tone, vomiting and thin feces
  liver histopathology: moderate degree proliferation of cells belonging to the mononuclear phagocyte system (MPS) of the liver
  mortality: no death occurred
[3]; female, by base
  Intravenous LD50 value: 215 (190-764) by base mg/kg
[3]; female, by citrate
  Intravenous LD50 value: 346 (306-1232) by citrate mg/kg
[3]; male, by base
  Intravenous LD50 value: 197 (168-301) by base mg/kg
[3]; male, by citrate
  Intravenous LD50 value: 317 (271-485) by citrate mg/kg
[4]; [10]
  ECG and ophthalmological alterations: No ECG and opthalmological alterations
  mortality: No animals died
[4]; dog, both sexes, oral once daily for 112 days
  NOEL: 50 mg/kg/day
[5]; female, by base
  Intraperitoneal LD50 value: 738 - by base mg/kg
[5]; female, by citrate
  Intraperitoneal LD50 value: 1189 - by citrate mg/kg
[5]; male, by base
  Intraperitoneal LD50 value: 839 (674-1023) by base mg/kg
[6]; by base
  No observed adverse effect level (NOAEL): 233 mg/kg/day
[6]; by citrate
  No observed adverse effect level (NOAEL): 375 mg/kg/day
[6]; rat, 375, 750, 1500 mg/kg/day oral, 28 days
  mortality: No deaths occurred
[7]
  changes in safety parameters (laboratory parameters, vital signs, ECGs): No changes in any safety parameters
  serious adverse events or deaths: no serious adverse events or deaths
[8]; Day 1
  dose-adjusted AUC0-8 h ratio (2×50 mg dosing level/100 mg dosing level): 0.95
  dose-adjusted Cmax ratio (2×50 mg dosing level/100 mg dosing level): 0.94
[8]; Day 10
  dose-adjusted AUC0-8 h ratio (2×50 mg dosing level/100 mg dosing level): 1.02
  dose-adjusted Cmax ratio (2×50 mg dosing level/100 mg dosing level): 0.88
[8]; Treatment A, 50 mg tid
  Racc accumulation ratio = AUC0-8 Day 10/AUC0-8 Day 1, GeoM: 1.512
  Racc accumulation ratio = AUC0-8 Day 10/AUC0-8 Day 1, MEAN: 1.525
[8]; Treatment B, 100 mg tid
  Racc accumulation ratio = AUC0-8 Day 10/AUC0-8 Day 1, MEAN: 1.426
[8]; continuation of Treatment B (100 mg tid) under a head printed as Treatment A
  Racc accumulation ratio = AUC0-8 Day 10/AUC0-8 Day 1, GeoM: 1.415
[8]; human, in vivo, 50 mg
  AUC0-inf, GeoM: 680 ng·h/mL
  AUC0-inf, MEAN: 691 ng·h/mL
  AUC0-tz, GeoM: 621 ng·h/mL
  AUC0-tz, MEAN: 632 ng·h/mL
  LinPK = AUC0-8 Day 10/AUC0-inf, GeoM: 1.148
  LinPK = AUC0-8 Day 10/AUC0-inf, MEAN: 1.166
[8]; human, in vivo, 100 mg
  AUC0-8, MEAN: 1101 ng·h/mL
  AUC0-inf, GeoM: 1303 ng·h/mL
  AUC0-inf, MEAN: 1344 ng·h/mL
  AUC0-tz, GeoM: 1266 ng·h/mL
  AUC0-tz, MEAN: 1307 ng·h/mL
  AUCt, MEAN: 1540 ng·h/mL
  LinPK = AUC0-8 Day 10/AUC0-inf, GeoM: 1.172
  LinPK = AUC0-8 Day 10/AUC0-inf, MEAN: 1.187
[9]
  mutagenic activity: no mutagenic activity
